In patent publication US20100317626A1, “The Use Of (3-Amino-2-Fluoropropyl) Phosphinic Acid For Treatment Of NERD” (ASTRAZENECA AB, priority 2007, published 2010):

Legend:
[1] = test system: transient lower esophageal sphincter relaxations (TLESRs); experiment: Clinical study: number of TLESRs after a standardised meal, single-blind randomised placebo-controlled; format: in vivo, healthy volunteers; conditions: for reduction of the number of transient lower esophageal sphincter relaxations (TLESRs) as compared to placebo: healthy volunteers, 0-3 hours after intake of a standardised meal completed 1 hour after drug intake
Experimental: A clinical study of (2R)-(3-Amino-2-fluoropropyl)phosphinic acid was performed. The study was a single-blind, randomised, parallel group, placebo-controlled study in healthy volunteers. Each subject was given 2 doses of (2R)-(3-Amino-2-fluoropropyl)phosphinic acid in escalating order and one placebo dose. A dose of (2R)-(3-Amino-2-fluoropropyl)phosphinic acid 0.8 mg/kg was compared to placebo and baclofen (40 mg) was used as a positive control. The order of treatments was randomised. The number of transient lower esophageal sphincter relaxations (TLESRs) 0-3 hours after intake of a standardised meal, (completed 1 hour after drug intake) were reduced by 36% and 47% for (2R)-(3-Amino-2-fluoropropyl)phosphinic acid and baclofen respectively, as compared to placebo (FIG. 1).

[2] = test system: bile reflux and reflux symptoms; conditions: patients with persistent non-acid duodenogastroesophageal reflux; cited from earlier work
[3] = clinical study in healthy volunteers

Row | SMILES | inhibition of TLESRs (result in words) [1, 3] | tolerability [1, 3] | reduction of the number of transient lower esophageal sphincter relaxations (TLESRs) as compared to placebo ([1]; dose 0.8 mg/kg) | effect on bile reflux and reflux symptoms [2] | reduction of the number of transient lower esophageal sphincter relaxations (TLESRs) as compared to placebo ([1]; baclofen 40 mg, positive control)
1 | NC[C@@H](F)C[PH](=O)O [(2R)-(3-Amino-2-fluoropropyl)phosphinic acid] | efficacious | well tolerated | 36% | – | –
2 | NCC(CC(=O)O)c1ccc(Cl)cc1 (centres unmarked) [baclofen, reference compound] | – | – | – | inhibit the occurrence of bile reflux and reflux symptoms | 47%
